From US11045520B2, “Compositions and methods for topical delivery of pharmaceutical agents” (priority 2016, dated 2021)

What was measured:
[1] = tested on: human skin explants; details: cited from earlier work
[2] = tested on: human skin; test: Franz cell diffusion apparatus assay, ETA-treated vs control skin (Example 3); type: in vitro ADME; details: ETA-treated human skin compared to non-treated control, 24 hours
Method: Permeation experiments with Franz diffusion cells were performed using human skin. The Franz diffusion cells were made of glass with a contact area of 1.35 cm^2, consisting of a donor compartment and a receptor compartment. The skin was mounted between the cell compartments and 2 O-ring shaped glasses were used to position the skin epidermis side-up and dermis side-down. The two cell compartments were held together with a clamp. […] It was kept at 37° C. on a heated plate. After 30 minutes of equilibration of the skin with the receptor solution, 200 μl of the drug solution was applied in the donor compartment with a pipet. The donor compartment was then covered with parafilm to prevent evaporation of the solvent. The receptor solution was continuously stirred using a spinning bar magnet at 200 rpm. Receptor solution samples, 0.2 ml aliquots, were withdrawn through the sampling port of the receptor compartment at various time intervals. The cells were refilled with a same amount of receptor solution to keep the volume of receptor solution constant during the experiment. The experiments were run for 24 hours. The fluorescent intensities collected from receptor compartments from normal and desquamated skin were compared over time using a spectrophotometer. […]

Row | Compound | penetration of intact human skin [1] | skin permeability, fluorescence in receptor compartment [2]
1 | C=C[C@@]1(C)CC(=O)[C@]2(O)[C@@]3(C)[C@@H](O)CCC(C)(C)[C@@H]3[C@H](O)[C@H](OC(C)=O)[C@@]2(C)O1 [Forskolin] | cannot, however, penetrate intact human skin | 
2 | CCN(CC)c1ccc2c(-c3ccc(S(=O)(=O)O)cc3S(=O)(=O)[O-])c3ccc(=[N+](CC)CC)cc-3oc2c1 [Sulforhodamine, sulforhodamine B] |  | increase in skin permeability
